Data taken from patent US6858591B2, “Antibiotic AA 896 analogs” (Wyeth Holdings Corporation, priority 2001, dated 2005).
≈ marks a conversion by molar mass, not a printed value. Where two headings read alike, the source gives them in different places.

Legend:
Test in all cases: In vitro MIC, broth dilution
Format in all cases: cell-based
E. coli GC 2203 = settings: Escherichia coli, GC2203
CNS GC 4547 = system: CNS GC 4547
Summary of the method: (§1)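 Susceptibility testing used the NCCLS broth dilution method. Antibiotic spanned 64-0.06 μg/ml against an inoculum of 5×10^5 CFU/ml in Mueller-Hinton II; after 18 hours at 35° C the lowest concentration without growth gave the MIC.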

S. aureus GC 4536 = settings: Staphylococcus aureus, GC4536
Summary of the method: as §1

E. faecalis GC 2242 = settings: Enterococcus faecalis, GC2242
Summary of the method: as §1

CNS GC 4538 = system: CNS GC 4538
Summary of the method: as §1

CNS GC 4537 = system: CNS GC 4537
Summary of the method: as §1

E. faecalis GC 842 = settings: Enterococcus faecalis, GC842
Summary of the method: as §1

E. faecalis GC 4555 = settings: Enterococcus faecalis, GC4555
Summary of the method: as §1

S. aureus GC 1131 = settings: Staphylococcus aureus, GC1131
Summary of the method: as §1

S. aureus GC 2216 = settings: Staphylococcus aureus, GC2216
Summary of the method: as §1

M. morganii GC 4531 = settings: Morganella morganii, GC4531
E. coli GC 4560 = settings: Escherichia coli, GC4560
P. aeruginosa GC 2214 = settings: Pseudomonas aeruginosa, GC2214
S. marcescens GC 4077 = settings: Serratia marcescens, GC4077
E. coli GC 3226 = settings: Escherichia coli, GC3226
E. cloacae GC 3783 = settings: Enterobacter cloacae, GC3783
P. aeruginosa GC 4532 = settings: Pseudomonas aeruginosa, GC4532
E. coli GC 4559 = settings: Escherichia coli, GC4559
C. albicans GC 3066 = settings: Candida albicans, GC3066
K. pneumoniae GC 4534 = settings: Klebsiella pneumoniae, GC4534
[1] = S. aureus GC 4536, read-out: MIC
[2] = E. faecalis GC 2242, read-out: MIC
[3] = E. faecalis GC 842, read-out: MIC
[4] = E. faecalis GC 4555, read-out: MIC
[5] = S. aureus GC 1131, read-out: MIC
[6] = S. aureus GC 2216, read-out: MIC
[7] = M. morganii GC 4531, read-out: MIC
[8] = P. aeruginosa GC 2214, read-out: MIC
[9] = S. marcescens GC 4077, read-out: MIC
[10] = E. cloacae GC 3783, read-out: MIC
[11] = P. aeruginosa GC 4532, read-out: MIC
[12] = C. albicans GC 3066, read-out: MIC
[13] = K. pneumoniae GC 4534, read-out: MIC

Structure (SMILES) | MIC (E. coli GC 2203; E. coli GC 2203, read-out: MIC) | MIC (CNS GC 4547; CNS GC 4547, read-out: MIC) | MIC (S. aureus GC 4536; [1]) | MIC (E. faecalis GC 2242; [2]) | MIC (CNS GC 4538; CNS GC 4538, read-out: MIC) | MIC (CNS GC 4537; CNS GC 4537, read-out: MIC) | MIC (E. faecalis GC 842; [3]) | MIC (E. faecalis GC 4555; [4]) | MIC (S. aureus GC 1131; [5]) | MIC (S. aureus GC 2216; [6]) | MIC (M. morganii GC 4531; [7]) | MIC (E. coli GC 4560; E. coli GC 4560, read-out: MIC) | MIC (P. aeruginosa GC 2214; [8]) | MIC (S. marcescens GC 4077; [9]) | MIC (E. coli GC 3226; E. coli GC 3226, read-out: MIC) | MIC (E. cloacae GC 3783; [10]) | MIC (P. aeruginosa GC 4532; [11]) | MIC (E. coli GC 4559; E. coli GC 4559, read-out: MIC) | MIC (C. albicans GC 3066; [12]) | MIC (K. pneumoniae GC 4534; [13]) | other results
COc1ccc(Cn2c(=O)ccn([C@@H]3OC([C@H](O)[C@H](NCCCNC(=O)[C@@H](N)[C@H](C)O)C(=O)OC(C)(C)C)[C@@H](O)[C@H]3O)c2=O)cc1 (stereo partly drawn) [Example 45, tert-Butyl (2S,3R)-2-[(3-{[(2S,3S)-2-amino-3-hydroxybutanoyl]amino}propyl)amino]-3-[(3S,4R,5R)-3,4-dihydroxy-5-(3-(4-methoxybenzyl)-2,4-dioxo-3,4-dihydro-1(2H)-pyrimidinyl)-tetrahydro-2-furanyl]-3-hydroxypropanoate] | > 128 µg/mL | > 128 µg/mL | > 128 µg/mL | 128 µg/mL (≈ 196 µM) | > 128 µg/mL | > 128 µg/mL | > 128 µg/mL | > 128 µg/mL | > 128 µg/mL | > 128 µg/mL | 128 µg/mL (≈ 196 µM) | > 128 µg/mL | 128 µg/mL (≈ 196 µM) | > 128 µg/mL | > 128 µg/mL | > 128 µg/mL | 128 µg/mL (≈ 196 µM) | > 128 µg/mL | 128 µg/mL (≈ 196 µM) | > 128 µg/mL | –
COc1ccc(Cn2c(=O)ccn([C@@H]3OC([C@H](O)[C@H](NC(=O)CCCCCCCCCCN)C(=O)OC(C)(C)C)[C@@H](O[Si](C)(C)C(C)(C)C)[C@H]3O[Si](C)(C)C(C)(C)C)c2=O)cc1 (stereo partly drawn) [Example 23, tert-Butyl (2S,3R)-2-[(11-aminoundecanoyl)amino]-3-[(3R,4R,5R)-3,4-bis{[tert-butyl(dimethyl)silyl]oxy}-5-(3-(4-methoxybenzyl)-2,4-dioxo-3,4-dihydro-1(2H)-pyrimidinyl)tetrahydro-2-furanyl]-3-hydroxypropanoate] | > 128 µg/mL | > 128 µg/mL | 128 µg/mL (≈ 141 µM) | 128 µg/mL (≈ 141 µM) | 128 µg/mL (≈ 141 µM) | 128 µg/mL (≈ 141 µM) | 128 µg/mL (≈ 141 µM) | 128 µg/mL (≈ 141 µM) | > 128 µg/mL | 128 µg/mL (≈ 141 µM) | 128 µg/mL (≈ 141 µM) | 128 µg/mL (≈ 141 µM) | 128 µg/mL (≈ 141 µM) | 128 µg/mL (≈ 141 µM) | > 128 µg/mL | > 128 µg/mL | 128 µg/mL (≈ 141 µM) | > 128 µg/mL | 128 µg/mL (≈ 141 µM) | > 128 µg/mL | –
CCOC(=O)C(NCCCNC(=O)[C@@H](N)CC(C)C)[C@@H](OC(C)=O)[C@H]1O[C@H](n2ccc(=O)[nH]c2=O)[C@H](OC(C)=O)[C@@H]1OC(C)=O (stereo partly drawn) [Example 39, Ethyl (3R)-3-(acetyloxy)-2-[(3-{[(2S)-2-amino-4-methylpentanoyl]amino}propyl)amino]-3-[(2R,3R,4R,5S)-3,4-bis(acetyloxy)-5-(2,4-dioxo-3,4-dihydro-1(2H)-pyrimidinyl)tetrahydro-2-furanyl]propanoate] | > 128 µg/mL | > 128 µg/mL | > 128 µg/mL | 128 µg/mL (≈ 199 µM) | > 128 µg/mL | > 128 µg/mL | > 128 µg/mL | > 128 µg/mL | > 128 µg/mL | > 128 µg/mL | 128 µg/mL (≈ 199 µM) | > 128 µg/mL | 128 µg/mL (≈ 199 µM) | 128 µg/mL (≈ 199 µM) | > 128 µg/mL | > 128 µg/mL | 128 µg/mL (≈ 199 µM) | > 128 µg/mL | 128 µg/mL (≈ 199 µM) | > 128 µg/mL | –
COc1ccc(Cn2c(=O)ccn([C@@H]3OC([C@H](O)[C@H](NCCCNC(=O)[C@@H](NC(=O)OCc4ccccc4)C(C)O)C(=O)O)[C@@H](O)C3O[Si](C)(C)C(C)(C)C)c2=O)cc1 (stereo in doubt) [Example 46, (5S,12S)-12-[(R)-[(3R,4R,5R)-4-{[tert-butyl(dimethyl)silyl]oxy}-3-hydroxy-5-(3-(4-methoxy-benzyl)-2,4-dioxo-3,4-dihydro-1(2H)-pyrimidinyl)tetrahydro-2-furanyl](hydroxy)methyl]-5-[(1S)-1-hydroxyethyl]-3,6-dioxo-1-phenyl-2-oxa-4,7,11-triazatridecan-13-oic acid] | > 128 µg/mL | > 128 µg/mL | > 128 µg/mL | 128 µg/mL (≈ 152 µM) | > 128 µg/mL | > 128 µg/mL | 128 µg/mL (≈ 152 µM) | 128 µg/mL (≈ 152 µM) | > 128 µg/mL | > 128 µg/mL | 128 µg/mL (≈ 152 µM) | 128 µg/mL (≈ 152 µM) | 128 µg/mL (≈ 152 µM) | > 128 µg/mL | > 128 µg/mL | > 128 µg/mL | 128 µg/mL (≈ 152 µM) | > 128 µg/mL | 128 µg/mL (≈ 152 µM) | > 128 µg/mL | –
COc1ccc(Cn2c(=O)ccn([C@@H]3OC([C@H](O)[C@H](NCCCNC(=O)[C@@H](N)C(C)O)C(=O)O)[C@@H](O)[C@H]3O[Si](C)(C)C(C)(C)C)c2=O)cc1 (some centres unmarked) [Example 48] | > 128 µg/mL | 128 µg/mL (≈ 180 µM) | > 128 µg/mL | 64 µg/mL (≈ 90.2 µM) | > 128 µg/mL | > 128 µg/mL | 128 µg/mL (≈ 180 µM) | 128 µg/mL (≈ 180 µM) | > 128 µg/mL | > 128 µg/mL | 128 µg/mL (≈ 180 µM) | 128 µg/mL (≈ 180 µM) | > 128 µg/mL | 128 µg/mL (≈ 180 µM) | > 128 µg/mL | > 128 µg/mL | 128 µg/mL (≈ 180 µM) | > 128 µg/mL | 128 µg/mL (≈ 180 µM) | > 128 µg/mL | –
COc1ccc(Cn2c(=O)ccn([C@@H]3OC([C@H](O)[C@H](NC(=O)CCCCCCCCCCNC(=O)OCC4c5ccccc5-c5ccccc54)C(=O)OC(C)(C)C)[C@@H](O[Si](C)(C)C(C)(C)C)[C@H]3O[Si](C)(C)C(C)(C)C)c2=O)cc1 (stereo partly drawn) [Example 22, tert-Butyl (2S,3R)-3-[(3R,4R,5R)-3,4-bis{[tert-butyl(dimethyl)silyl]oxy}-5-(3-(4-methoxybenzyl)-2,4-dioxo-3,4-dihydro-1(2H)-pyrimidinyl)tetrahydro-2-furanyl]-2-[(11-{[(9H-fluoren-9-ylmethoxy)carbonyl]amino}undecanoyl)-amino]-3-hydroxypropanoate] | – | – | – | – | – | – | – | – | – | – | – | – | – | – | – | – | – | – | – | – | MIC (E. coli GC 2203): > 128 µg/mL; MIC (CNS GC 4547): > 128 µg/mL; MIC (S. aureus GC 4536): > 128 µg/mL; MIC (E. faecalis GC 2242): > 128 µg/mL; MIC (CNS GC 4538): > 128 µg/mL; MIC (CNS GC 4537): > 128 µg/mL; MIC (E. faecalis GC 842): > 128 µg/mL; MIC (E. faecalis GC 4555): > 128 µg/mL; MIC (S. aureus GC 1131): > 128 µg/mL; MIC (S. aureus GC 2216): > 128 µg/mL; MIC (M. morganii GC 4531): > 128 µg/mL; MIC (E. coli GC 4560): > 128 µg/mL; MIC (P. aeruginosa GC 2214): > 128 µg/mL; MIC (S. marcescens GC 4077): > 128 µg/mL; MIC (E. coli GC 3226): > 128 µg/mL; MIC (E. cloacae GC 3783): > 128 µg/mL; MIC (P. aeruginosa GC 4532): > 128 µg/mL; MIC (E. coli GC 4559): > 128 µg/mL; MIC (C. albicans GC 3066): > 128 µg/mL; MIC (K. pneumoniae GC 4534): > 128 µg/mL
COc1ccc(Cn2c(=O)ccn([C@@H]3OC([C@H](O)[C@H](NCCCNC(=O)[C@H](CC(C)C)NC(=O)OCc4ccccc4)C(=O)OC(C)(C)C)[C@@H](O)[C@H]3O)c2=O)cc1 (stereo partly drawn) [Example 51, tert-Butyl (5S,12S)-12-[(R)-[(3S,4R,5R)-3,4-dihydroxy-5-(3-(4-methoxybenzyl)-2,4-dioxo-3,4-dihydro-1(2H)-pyrimidinyl)tetrahydro-2-furanyl](hydroxy)methyl]-5-isobutyl-3,6-dioxo-1-phenyl-2-oxa-4,7,11-triazatridecan-13-oate] | > 128 µg/mL | > 128 µg/mL | > 128 µg/mL | 128 µg/mL (≈ 160 µM) | 128 µg/mL (≈ 160 µM) | > 128 µg/mL | 128 µg/mL (≈ 160 µM) | 128 µg/mL (≈ 160 µM) | > 128 µg/mL | > 128 µg/mL | 128 µg/mL (≈ 160 µM) | 128 µg/mL (≈ 160 µM) | 128 µg/mL (≈ 160 µM) | > 128 µg/mL | > 128 µg/mL | > 128 µg/mL | 128 µg/mL (≈ 160 µM) | > 128 µg/mL | 128 µg/mL (≈ 160 µM) | > 128 µg/mL | –
